{"source": "patent US20050266509A1", "about": "“Interaction of NMDA receptor with protein tyrosine phosphatase” (AGY Therapeutics, Inc., priority 2003, published 2005)", "target": "T1, CD45 (Homo sapiens, UniProt P08575)", "T1 sequence (P08575 26-1306)": "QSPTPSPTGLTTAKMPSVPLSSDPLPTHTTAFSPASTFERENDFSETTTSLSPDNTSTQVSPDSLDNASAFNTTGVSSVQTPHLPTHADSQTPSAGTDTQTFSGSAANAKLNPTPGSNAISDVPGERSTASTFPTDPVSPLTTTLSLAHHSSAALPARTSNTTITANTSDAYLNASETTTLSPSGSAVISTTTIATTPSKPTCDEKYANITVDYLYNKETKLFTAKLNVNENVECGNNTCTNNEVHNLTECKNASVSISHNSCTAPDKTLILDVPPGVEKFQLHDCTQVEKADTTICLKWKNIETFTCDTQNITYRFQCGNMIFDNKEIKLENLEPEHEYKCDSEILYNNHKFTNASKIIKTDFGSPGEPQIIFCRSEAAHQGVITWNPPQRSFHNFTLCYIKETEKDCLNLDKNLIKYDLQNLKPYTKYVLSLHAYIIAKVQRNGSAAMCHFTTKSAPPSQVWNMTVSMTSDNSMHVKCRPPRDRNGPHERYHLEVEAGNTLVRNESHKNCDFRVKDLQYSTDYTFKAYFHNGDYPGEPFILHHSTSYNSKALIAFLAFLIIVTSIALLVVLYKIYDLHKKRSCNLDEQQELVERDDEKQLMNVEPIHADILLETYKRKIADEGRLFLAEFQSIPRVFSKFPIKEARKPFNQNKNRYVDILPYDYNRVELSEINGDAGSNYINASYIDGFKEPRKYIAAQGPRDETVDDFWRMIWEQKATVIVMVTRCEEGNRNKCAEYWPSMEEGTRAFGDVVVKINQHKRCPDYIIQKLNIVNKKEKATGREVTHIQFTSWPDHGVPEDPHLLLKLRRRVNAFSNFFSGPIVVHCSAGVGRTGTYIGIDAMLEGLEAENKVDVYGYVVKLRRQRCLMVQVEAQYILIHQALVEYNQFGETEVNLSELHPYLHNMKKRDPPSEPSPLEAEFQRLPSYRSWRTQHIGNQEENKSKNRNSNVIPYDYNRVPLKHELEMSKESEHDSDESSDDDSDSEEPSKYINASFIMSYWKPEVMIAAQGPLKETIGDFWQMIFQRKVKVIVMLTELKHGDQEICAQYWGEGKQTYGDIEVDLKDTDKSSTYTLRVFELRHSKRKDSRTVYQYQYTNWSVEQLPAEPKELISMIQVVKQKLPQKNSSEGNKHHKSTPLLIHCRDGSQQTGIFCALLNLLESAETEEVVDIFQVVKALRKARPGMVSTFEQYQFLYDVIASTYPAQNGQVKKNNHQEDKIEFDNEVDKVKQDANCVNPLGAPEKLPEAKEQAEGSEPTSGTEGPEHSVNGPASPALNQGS", "assay": "FRET phosphatase assay, CD45", "assay_type": "biochemical", "protocol": "For the enzyme activity assay, 2.5 μl of compound, 12.5 μl of enzyme, and 10 μl of substrate (separated by air gaps) are added to columns 3 through 24 by the Biomek FX in a single dispense. After the dispense, the tips are washed with DMSO and water for re-use between each quadrant. Once the assay plates are set up, they are incubated at 27° C. for 45 minutes. Then 20 μl of detection buffer is added to stop the reaction and to allow the Europium antibody (Eu-Ab) and streptavidin-APC to bind to the substrate.\nThe plates are then placed in the plate reader, an Analyst HT. Excitation light at 360 nm is used to excite the Europium antibody with an emission at 620 nm. Fluorescence resonance energy transfer (FRET) from Eu-Ab to APC will only occur when they are in close proximity. Therefore, when an APC emission is observed at 665 nm the enzyme has been inhibited from removing the phosphate group from the substrate. The FRET assay is time-resolved (TR), where there is a delay between excitation light and collection of emission signals. This reduces the amount of stray light created by short-lived fluorescing molecules. The Analyst HT measures APC and Europium emission signals and calculates the ratio between the two intensities. Typical intensities for the Europium is ˜2000 and APC is ˜600.\nThe following compounds were tested by FRET against the listed phosphatases, and the IC50 were obtained. […]"}
{"smiles": "CCOC(=O)C(=CC1=C/C(=C/N(C)C)C(=O)O1)C(=O)OCC", "note": "[AGY- 0046293]", "values": [{"measurement": "IC50", "result": 90, "unit": "µM"}]}
